Assay results published in patent US20140045895A1, “PHARMACEUTICAL DEPOT FOR 5-FLUORO-2-[[(1S)-1-(5-FLUORO-2-PYRIDYL)ETHYL]AMINO]-6-[(5-ISOPROPOXY-1H-PYRAZOL-3-YL)AMINO]PYRIDINE-3-CARBONITRILE” (ASTRAZENECA AB, priority 2010, published 2014).

Experiments:
[1] = Hydrolytic stability of PA in the acidic microclimate created by polymer degradation; assay type: physicochemical
[2] = Plasma levels after intra-articular injection of 50/50 PLGA formulation; assay type: in vivo, rats; conditions: 200 μg dose in 50/50 PLGA IA formulation into knees, rat plasma
Method: Animals were anaesthetised with isofluorane and 30 μl PLGA microspheres containing 200 μg injected into each knee using a Hamilton syringe and 25G needle. The vial of microspheres was vortexed before injection of each animal to try and obtain a homogeneous injection solution. Animals were recovered and returned to their home cages until plasma sampling.
Animals were warmed in a hot box for 10 minutes at 42° C. before being placed in a restrainer and 200 μl blood sampled from the lateral tail vein into a Sarsted Multivette 600 Lithium Heparin tube (cat no 15.1673) attached to a 21G needle. Tubes were placed on a roller until centrifugation at 13000 rpm for 5 minutes to sediment red blood cells. Plasma was decanted and stored at −20° C. until analysis by DMPK. Samples were taken 1 h, 3 h, 6 h, 24 h, 48 h, 96 h and 168 h post-injection.
The levels shown are for a 200 μg dose of compound.

For CC(C)Oc1cc(Nc2nc(N[C@@H](C)c3ccc(F)cn3)c(C#N)cc2F)n[nH]1 [PA, 5-fluoro-2-[[(1S)-1-(5-fluoro-2-pyridyl)ethyl]amino]-6-[(5-isopropoxy-1H-pyrazol-3-yl)amino]pyridine-3-carbonitrile], the “hydrolytic stability in acidic microclimate” value [1] was “hydrolytically stable” and the “period over which release of compound was seen (plasma)” value [2] was 168 h.
